The source made the active and inactive calls. The rule behind the calls is not given here.
How the values were obtained:
[1] = Inhibition of amyloid beta (1 to 42) self-aggregation at 20 uM after 48 hrs by thioflavin T fluorescent dye assay
Acetylcholinesterase = Acetylcholinesterase (Electrophorus electricus, UniProt O42275)
Description: Inhibition of electric eel AChE assessed as inhibition of acetylthiocholine chloride substrate hydrolysis incubated for 15 mins before substrate addition measured by spectrophotometry

Cholinesterase = Cholinesterase (Equus caballus, UniProt P81908)
Description: Inhibition of equine serum BuChE assessed as inhibition of butyrylthiocholine chloride substrate hydrolysis incubated for 15 mins before substrate addition measured by spectrophotometry

[2] = target: Acetylcholinesterase (Electrophorus electricus) (UniProt O42275); assay: Binding affinity at electric eel AChE catalytic active site assessed as inhibition of acetylthiocholine chloride substrate hydrolysis incubated for 15 mins before substrate addition measured by spectrophotometry based Lineweaver-Burk plot analysis
[3] = target: Acetylcholinesterase (Electrophorus electricus) (UniProt O42275); assay: Binding affinity at electric eel AChE peripheral anionic site assessed as inhibition of acetylthiocholine chloride substrate hydrolysis incubated for 15 mins before substrate addition measured by spectrophotometry based Lineweaver-Burk plot analysis

Chain of Cholinesterase (P81908 whole entry): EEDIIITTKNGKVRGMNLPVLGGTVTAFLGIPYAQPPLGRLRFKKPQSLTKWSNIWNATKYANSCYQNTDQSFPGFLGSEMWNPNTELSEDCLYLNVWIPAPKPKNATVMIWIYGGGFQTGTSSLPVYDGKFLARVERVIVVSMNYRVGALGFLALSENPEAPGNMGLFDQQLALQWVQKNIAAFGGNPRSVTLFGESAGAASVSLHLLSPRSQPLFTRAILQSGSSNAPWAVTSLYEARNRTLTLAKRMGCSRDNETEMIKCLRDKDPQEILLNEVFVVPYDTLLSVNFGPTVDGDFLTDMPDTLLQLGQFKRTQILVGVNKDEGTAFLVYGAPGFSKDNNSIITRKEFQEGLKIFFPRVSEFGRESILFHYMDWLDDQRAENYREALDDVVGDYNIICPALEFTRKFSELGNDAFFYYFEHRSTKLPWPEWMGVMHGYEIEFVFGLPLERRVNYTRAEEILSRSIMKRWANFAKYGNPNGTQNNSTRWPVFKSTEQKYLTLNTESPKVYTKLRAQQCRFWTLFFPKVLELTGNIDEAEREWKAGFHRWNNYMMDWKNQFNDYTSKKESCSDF
Chain of Acetylcholinesterase (O42275 whole entry): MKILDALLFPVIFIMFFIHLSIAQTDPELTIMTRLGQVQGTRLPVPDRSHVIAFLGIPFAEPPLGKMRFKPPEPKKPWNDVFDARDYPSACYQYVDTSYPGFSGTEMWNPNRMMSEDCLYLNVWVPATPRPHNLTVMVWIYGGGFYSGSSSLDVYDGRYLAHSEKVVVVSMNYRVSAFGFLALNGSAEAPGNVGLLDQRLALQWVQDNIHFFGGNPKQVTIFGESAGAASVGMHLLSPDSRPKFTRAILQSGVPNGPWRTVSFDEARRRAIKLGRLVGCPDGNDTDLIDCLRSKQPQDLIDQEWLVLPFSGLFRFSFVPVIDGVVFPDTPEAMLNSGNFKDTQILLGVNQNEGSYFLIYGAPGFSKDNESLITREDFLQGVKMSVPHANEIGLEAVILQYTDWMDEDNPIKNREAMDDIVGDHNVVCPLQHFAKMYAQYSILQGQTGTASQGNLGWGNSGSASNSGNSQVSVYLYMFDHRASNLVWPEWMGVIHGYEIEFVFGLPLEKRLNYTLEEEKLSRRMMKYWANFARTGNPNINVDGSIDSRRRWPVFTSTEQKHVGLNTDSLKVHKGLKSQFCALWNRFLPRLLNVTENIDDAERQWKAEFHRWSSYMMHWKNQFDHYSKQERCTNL
Chain of Acetylcholinesterase (Electrophorus electricus) (O42275 24-633 limits assumed): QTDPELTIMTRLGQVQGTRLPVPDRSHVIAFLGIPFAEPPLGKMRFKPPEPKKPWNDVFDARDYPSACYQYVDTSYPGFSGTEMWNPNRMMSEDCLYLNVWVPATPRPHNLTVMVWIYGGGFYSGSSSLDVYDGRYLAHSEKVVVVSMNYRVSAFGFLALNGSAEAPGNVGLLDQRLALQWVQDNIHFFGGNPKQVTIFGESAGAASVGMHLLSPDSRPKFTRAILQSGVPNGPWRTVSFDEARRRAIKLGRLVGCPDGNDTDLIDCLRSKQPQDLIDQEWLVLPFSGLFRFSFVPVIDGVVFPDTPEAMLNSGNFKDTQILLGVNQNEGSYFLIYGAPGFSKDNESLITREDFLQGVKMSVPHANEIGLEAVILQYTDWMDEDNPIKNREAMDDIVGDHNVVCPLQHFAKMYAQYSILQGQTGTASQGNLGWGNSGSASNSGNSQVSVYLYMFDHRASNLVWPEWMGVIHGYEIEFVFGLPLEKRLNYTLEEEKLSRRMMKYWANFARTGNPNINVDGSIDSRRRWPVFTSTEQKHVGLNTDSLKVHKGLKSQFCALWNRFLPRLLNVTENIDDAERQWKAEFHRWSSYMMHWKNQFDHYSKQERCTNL

COc1ccc(CNCCCCCCNc2c3c(nc4ccccc24)CCCC3)cc1OC
inhibition [1]: Active

Oc1ccc(CNCCCCCCCCNc2c3c(nc4ccccc24)CCCC3)cc1
IC50 (Acetylcholinesterase): 7.48 nM
IC50 (Cholinesterase): 5.31 nM

COc1ccc(CNCCCCCCCCNc2c3c(nc4ccccc24)CCCC3)cc1
IC50 (Acetylcholinesterase): 15.3 nM
IC50 (Cholinesterase): 4.82 nM

c1ccc2c(NCCCCCCCCNCc3ccc4c(c3)OCO4)c3c(nc2c1)CCCC3
IC50 (Acetylcholinesterase): 6.14 nM
IC50 (Cholinesterase): 3.44 nM

COc1cc(CNCCCCCCCCNc2c3c(nc4ccccc24)CCCC3)ccc1O
inhibition [2]: Active
inhibition [3]: Active
inhibition [1]: 71%
IC50 (Acetylcholinesterase): 4.55 nM
IC50 (Cholinesterase): 3.41 nM

COc1ccc(CNCCCCNc2c3c(nc4ccccc24)CCCC3)cc1OC
inhibition [1]: Active
IC50 (Acetylcholinesterase): 365 nM
IC50 (Cholinesterase): 37.2 nM

COc1cc(/C=C/C(=O)CC(=O)/C=C/c2ccc(O)c(OC)c2)ccc1O
inhibition [1]: 50%

O=C(NCCCCCCCCNc1c2c(nc3ccccc13)CCCC2)c1ccncc1
IC50 (Acetylcholinesterase): 38.5 nM
IC50 (Cholinesterase): 38.7 nM

Oc1ccc(CNCCCCCCNc2c3c(nc4ccccc24)CCCC3)cc1
IC50 (Acetylcholinesterase): 25.6 nM
IC50 (Cholinesterase): 7.5 nM

COc1ccc(CNCCCCCNc2c3c(nc4ccccc24)CCCC3)cc1OC
IC50 (Acetylcholinesterase): 104 nM
IC50 (Cholinesterase): 24.4 nM

COc1cc(CNCCCCCCCCNc2c3c(nc4ccccc24)CCCC3)cc(OC)c1O
IC50 (Acetylcholinesterase): 4.61 nM
IC50 (Cholinesterase): 4.08 nM

c1ccc2c(NCCCCCCCCNCc3ccncc3)c3c(nc2c1)CCCC3
IC50 (Acetylcholinesterase): 4.7 nM
IC50 (Cholinesterase): 4.66 nM

COc1cc(CNCCCCCCNc2c3c(nc4ccccc24)CCCC3)ccc1O
IC50 (Acetylcholinesterase): 43.6 nM
IC50 (Cholinesterase): 9.28 nM

Oc1ccccc1CNCCCCCCCCNc1c2c(nc3ccccc13)CCCC2
IC50 (Acetylcholinesterase): 12.5 nM
IC50 (Cholinesterase): 10.2 nM

Oc1cccc(CNCCCCCCCCNc2c3c(nc4ccccc24)CCCC3)c1
IC50 (Acetylcholinesterase): 15.1 nM
IC50 (Cholinesterase): 4.91 nM
